Reference: ChEMBL document CHEMBL4622963, “Optimization of Nicotinamides as Potent and Selective IRAK4 Inhibitors with Efficacy in a Murine Model of Psoriasis” (ACS Med Chem Lett, 2020)
pIC50: −log10 of the molar value.

Legend:
[1] = target: T1, Interleukin-1 receptor-associated kinase 4 (Mus musculus) (UniProt Q8R4K2); assay: In vivo Inhibition of IRAK4 in LTA-treated BALB/c mouse assessed as suppression of IL-6 level in serum at 10 mg/kg by ELISA relative to control; format: functional, organism-based
T1 sequence (whole entry): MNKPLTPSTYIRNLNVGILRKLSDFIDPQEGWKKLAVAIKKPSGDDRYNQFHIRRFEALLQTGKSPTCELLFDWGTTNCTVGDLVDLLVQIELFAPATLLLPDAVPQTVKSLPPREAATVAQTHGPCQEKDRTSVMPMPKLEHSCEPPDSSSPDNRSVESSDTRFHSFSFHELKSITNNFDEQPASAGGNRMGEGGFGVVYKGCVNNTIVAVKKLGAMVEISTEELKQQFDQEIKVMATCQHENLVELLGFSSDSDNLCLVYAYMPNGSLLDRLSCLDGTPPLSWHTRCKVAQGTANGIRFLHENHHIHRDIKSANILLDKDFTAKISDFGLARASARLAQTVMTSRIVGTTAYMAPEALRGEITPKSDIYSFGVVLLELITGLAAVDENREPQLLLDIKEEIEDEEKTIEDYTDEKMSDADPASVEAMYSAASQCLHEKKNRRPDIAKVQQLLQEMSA

[2] = Half life in mouse at 2 mg/kg, iv administered as infusion or 5 mg/kg, po via gavage measured up to 24 hrs by LC-MS analysis; format: ADME, organism-based; conditions: in vivo
[3] = target: T1, Interleukin-1 receptor-associated kinase 4 (Mus musculus); assay: In vivo Inhibition of IRAK4 in LTA-treated BALB/c mouse assessed as suppression of IL-6 level in serum at 0.3 mg/kg by ELISA relative to control; format: functional, organism-based
[4] = target: T1, Interleukin-1 receptor-associated kinase 4 (Mus musculus); assay: In vivo Inhibition of IRAK4 in LTA-treated BALB/c mouse assessed as suppression of IL-6 level in serum at 3 mg/kg by ELISA relative to control; format: functional, organism-based
[5] = target: Tyrosine-protein kinase Lck (Homo sapiens, UniProt P06239); assay: Inhibition of N-terminal His6-tagged human full length recombinant LCK expressed in baculovirus infected Sf21 cells
[6] = Stability in human liver microsomes assessed as parent compound remaining; format: ADME, Microsome
Mus musculus [7] = organism: Mus musculus; assay: animal or person; conditions: C57BL/6, po, 144 h, read-out: INH
[8] = target: T2, Tyrosine-protein kinase receptor TYRO3 (Homo sapiens, UniProt Q06418); assay: Inhibition of human wild type partial length TYRO3 (497 to 814 residues) expressed in bacterial expression system
T2 sequence (Q06418 whole entry): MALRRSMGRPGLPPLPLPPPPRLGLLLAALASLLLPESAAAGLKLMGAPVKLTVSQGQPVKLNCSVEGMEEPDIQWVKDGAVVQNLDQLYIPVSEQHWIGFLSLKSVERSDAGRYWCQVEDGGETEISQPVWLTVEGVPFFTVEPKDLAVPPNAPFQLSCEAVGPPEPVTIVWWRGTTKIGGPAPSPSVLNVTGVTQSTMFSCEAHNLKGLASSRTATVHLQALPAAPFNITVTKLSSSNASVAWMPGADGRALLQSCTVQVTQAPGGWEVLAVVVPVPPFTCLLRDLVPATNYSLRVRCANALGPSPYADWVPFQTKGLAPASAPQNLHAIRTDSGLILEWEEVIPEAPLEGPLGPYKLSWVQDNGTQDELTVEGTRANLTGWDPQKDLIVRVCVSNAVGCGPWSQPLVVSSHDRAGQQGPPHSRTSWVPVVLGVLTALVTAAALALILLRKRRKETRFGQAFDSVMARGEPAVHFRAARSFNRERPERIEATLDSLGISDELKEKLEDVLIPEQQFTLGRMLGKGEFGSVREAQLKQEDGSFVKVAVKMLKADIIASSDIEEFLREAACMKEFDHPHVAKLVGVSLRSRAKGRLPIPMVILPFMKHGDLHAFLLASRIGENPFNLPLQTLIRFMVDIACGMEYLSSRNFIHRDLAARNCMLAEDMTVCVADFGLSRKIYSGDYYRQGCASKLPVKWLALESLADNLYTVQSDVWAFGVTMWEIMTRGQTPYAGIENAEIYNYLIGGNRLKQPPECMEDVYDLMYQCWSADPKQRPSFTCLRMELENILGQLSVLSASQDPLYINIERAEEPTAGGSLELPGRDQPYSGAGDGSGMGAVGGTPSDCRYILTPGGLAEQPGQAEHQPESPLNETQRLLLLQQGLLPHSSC

[9] = Drug uptake in imiquimod-induced C57BL/6 mouse model of psoriasis at 10 mg/kg, po dosed via gavage twice daily and measured after 8 hrs by LC-MS analysis; format: ADME, organism-based; conditions: in vivo, read-out: Drug uptake
[10] = target: T3, Interleukin-1 receptor-associated kinase 3 (Homo sapiens, UniProt Q9Y616); assay: Inhibition of human wild type partial length IRAK3 (147 to 596 residues) expressed in bacterial expression system
T3 sequence (Q9Y616 whole entry): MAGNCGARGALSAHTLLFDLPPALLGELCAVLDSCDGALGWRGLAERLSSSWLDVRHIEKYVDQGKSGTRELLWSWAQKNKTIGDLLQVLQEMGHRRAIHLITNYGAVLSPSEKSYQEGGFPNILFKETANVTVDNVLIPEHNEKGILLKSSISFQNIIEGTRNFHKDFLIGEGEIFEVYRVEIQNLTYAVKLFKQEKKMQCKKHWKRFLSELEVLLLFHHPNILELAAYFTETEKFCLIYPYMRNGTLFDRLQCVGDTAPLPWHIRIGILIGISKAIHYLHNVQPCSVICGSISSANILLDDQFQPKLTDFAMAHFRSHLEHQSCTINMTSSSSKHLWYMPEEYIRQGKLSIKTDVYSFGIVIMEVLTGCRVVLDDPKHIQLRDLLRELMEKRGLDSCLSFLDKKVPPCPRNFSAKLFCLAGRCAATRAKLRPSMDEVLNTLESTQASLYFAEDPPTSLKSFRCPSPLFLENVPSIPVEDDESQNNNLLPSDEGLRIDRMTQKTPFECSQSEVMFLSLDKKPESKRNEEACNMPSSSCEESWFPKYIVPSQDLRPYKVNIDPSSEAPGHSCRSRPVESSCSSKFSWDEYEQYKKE

Mus musculus [11] = organism: Mus musculus; assay: animal or person; conditions: C57BL/6, po, 144 h, read-out: INH; remark: listed apart in the source
[12] = AUC in mouse at 5 mg/kg, po via gavage measured up to 24 hrs by LC-MS analysis; format: ADME, organism-based; design: time < 24 hr, dose 5 mg/kg, route oral; conditions: in vivo
Mus musculus [13] = organism: Mus musculus; assay: animal or person; conditions: C57BL/6, po, 144 h, read-out: INH; remark: listed apart in the source
Mus musculus [14] = assay: Protection against po dosed imiquimod-induced psoriasis in C57BL/6 mouse assessed as reduction in clinical signs of psoriasis administered via gavage twice daily and measured on day 6; format: functional, organism-based
[15] = Oral bioavailability in mouse at 5 mg/kg administered via gavage measured up to 24 hrs by LC-MS analysis; format: ADME, organism-based; conditions: in vivo
[16] = Permeability across apical to basolateral side in human Caco2 cells; conditions: Caco-2

Tyrosine-protein kinase Lck, sequence (P06239 whole entry): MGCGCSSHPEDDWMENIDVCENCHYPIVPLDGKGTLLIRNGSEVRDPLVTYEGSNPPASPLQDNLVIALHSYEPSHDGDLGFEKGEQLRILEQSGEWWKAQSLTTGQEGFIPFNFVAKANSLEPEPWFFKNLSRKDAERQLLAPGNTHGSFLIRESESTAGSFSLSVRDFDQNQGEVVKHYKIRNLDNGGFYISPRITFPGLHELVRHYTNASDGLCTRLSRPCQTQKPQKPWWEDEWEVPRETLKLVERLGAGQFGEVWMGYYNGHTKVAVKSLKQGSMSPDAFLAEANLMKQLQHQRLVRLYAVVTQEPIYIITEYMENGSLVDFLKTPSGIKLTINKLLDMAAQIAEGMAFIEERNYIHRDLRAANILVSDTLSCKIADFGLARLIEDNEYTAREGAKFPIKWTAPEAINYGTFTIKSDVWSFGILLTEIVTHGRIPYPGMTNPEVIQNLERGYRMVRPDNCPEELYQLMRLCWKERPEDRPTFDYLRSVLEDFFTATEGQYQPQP

CC(C)Nc1cc(Nc2nc3ccnn3cc2F)ncc1C(=O)NC[C@@H](F)C(C)(C)O
inhibition [1]: 93%
half-life [2]: 1.4 h
inhibition [3]: 72%
inhibition [4]: 87%
pIC50 [5]: < 5.70
Stability [6]: 93%
inhibition in vivo at 10 mg/kg (Mus musculus [7]): 43%
pIC50 [8]: 6.01
concentration at 8 h [9]: 494 nM
pIC50 [10]: 6.12
inhibition in vivo at 1 mg/kg (Mus musculus [11]): 17%
AUC at 24 h [12]: 2.4 µM·h
inhibition in vivo at 3 mg/kg (Mus musculus [13]): 30%
Activity (Mus musculus [14]): Dose-dependent effect
bioavailability [15]: > 100%
Papp A→B [16]: 21.5 ×10⁻⁶ cm/s
